Literature values, collected in patent US10543174B2, “Modified release tablet composition comprising mirabegron” (SYNTHON B.V., priority 2016, dated 2020).

Legend:
[1] = presence of food in the GI tract

- solubility (BCS): high solubility
- solubility in water (between neutral to acidic pH, EMA assessment report of Betmiga): soluble
- bioavailability, food effect [1]: affected by the presence of food
SMILES: Nc1nc(CC(=O)Nc2ccc(CCNC[C@H](O)c3ccccc3)cc2)cs1 [Mirabegron, (R)-2-(2-aminothiazol-4-yl)-4′-[2-[(2-hydroxy-2-phenylethyl)amino]ethyl]acetic acid anilide]
